Converted amounts (≈) assume the structure as drawn.
Columns and labels:
Cryptococcus neoformans [1] = experiment: Antimicrobial activity against Cryptococcus neoformans var. grubii by broth microdilution method; assay type: functional
Cryptococcus neoformans [2] = experiment: Antimicrobial activity against Cryptococcus neoformans var. grubii clinical isolate by broth microdilution method; assay type: functional
Cryptococcus neoformans [3] = experiment: Antimicrobial activity against Cryptococcus neoformans var. grubii obtained from AIDS patient by broth microdilution method; assay type: functional
Cryptococcus neoformans [4] = experiment: Antimicrobial activity against Cryptococcus neoformans var. grubii obtained from non-AIDS patient by broth microdilution method; assay type: functional
[5] = tested on: Cryptococcus gattii species complex; experiment: Antimicrobial activity against Cryptococcus gattii by broth microdilution method; assay type: functional, Cryptococcus bacillisporus
Naganishia albida = experiment: Antimicrobial activity against Cryptococcus albidus by broth microdilution method; assay type: functional
[6] = tested on: Cryptococcus albidosimilis; experiment: Antimicrobial activity against Cryptococcus albidosimilis by broth microdilution method; assay type: functional; conditions: Naganishia albidosimilis

Row | Compound | MIC50 (Cryptococcus neoformans [1]) | MIC90 (Cryptococcus neoformans [1]) | MIC50 (Cryptococcus neoformans [2]) | MIC90 (Cryptococcus neoformans [2]) | MIC50 (Cryptococcus neoformans [3]) | MIC90 (Cryptococcus neoformans [3]) | MIC50 (Cryptococcus neoformans [4]) | MIC90 (Cryptococcus neoformans [4]) | MIC50 [5] | MIC90 [5] | MIC50 (Naganishia albida) | MIC90 (Naganishia albida) | MIC50 [6] | MIC90 [6] | MIC (Cryptococcus neoformans [1]) | MIC [5] | MIC (Naganishia albida) | MIC [6]
1 | C[C@@H](c1ncncc1F)[C@](O)(Cn1cncn1)c1ccc(F)cc1F [VORICONAZOLE] | 0.063 µg/mL (≈ 0.18 µM) | 0.25 µg/mL (≈ 0.716 µM) | 0.031 µg/mL (≈ 0.0887 µM) | 0.125 µg/mL (≈ 0.358 µM) | 0.031 µg/mL (≈ 0.0887 µM) | 0.125 µg/mL (≈ 0.358 µM) | 0.063 µg/mL (≈ 0.18 µM) | 0.063 µg/mL (≈ 0.18 µM) | 0.063 µg/mL (≈ 0.18 µM) | 0.25 µg/mL (≈ 0.716 µM) | 0.063 µg/mL (≈ 0.18 µM) | 0.25 µg/mL (≈ 0.716 µM) | 0.063 µg/mL (≈ 0.18 µM) | 0.25 µg/mL (≈ 0.716 µM) | – | – | – | –
2 | C[C@@H]1[C@H](O)[C@@H](C)/C=C/C=C/C=C/C=C/C=C/C=C/C=C/[C@H](O[C@@H]2O[C@H](C)[C@@H](O)[C@H](N)[C@@H]2O)C[C@@H]2O[C@](O)(C[C@@H](O)C[C@@H](O)[C@H](O)CC[C@@H](O)C[C@@H](O)CC(=O)O[C@H]1C)C[C@H](O)[C@H]2C(=O)O [AMPHOTERICIN B] | 0.25 µg/mL (≈ 0.271 µM) | 0.5 µg/mL (≈ 0.541 µM) | 0.25 µg/mL (≈ 0.271 µM) | 0.25 µg/mL (≈ 0.271 µM) | 0.25 µg/mL (≈ 0.271 µM) | 0.25 µg/mL (≈ 0.271 µM) | – | – | 0.25 µg/mL (≈ 0.271 µM) | 0.5 µg/mL (≈ 0.541 µM) | 0.25 µg/mL (≈ 0.271 µM) | 0.5 µg/mL (≈ 0.541 µM) | 0.25 µg/mL (≈ 0.271 µM) | 0.5 µg/mL (≈ 0.541 µM) | – | – | – | –
3 | Nc1nc(=O)[nH]cc1F [FLUCYTOSINE] | 4 µg/mL (≈ 31 µM) | 8 µg/mL (≈ 62 µM) | 4 µg/mL (≈ 31 µM) | 8 µg/mL (≈ 62 µM) | 4 µg/mL (≈ 31 µM) | 8 µg/mL (≈ 62 µM) | 2 µg/mL (≈ 15.5 µM) | 4 µg/mL (≈ 31 µM) | 4 µg/mL (≈ 31 µM) | 8 µg/mL (≈ 62 µM) | 4 µg/mL (≈ 31 µM) | 8 µg/mL (≈ 62 µM) | 4 µg/mL (≈ 31 µM) | 8 µg/mL (≈ 62 µM) | – | – | – | –
4 | OC(Cn1cncn1)(Cn1cncn1)c1ccc(F)cc1F [FLUCONAZOLE] | 4 µg/mL (≈ 13.1 µM) | 8 µg/mL (≈ 26.1 µM) | 2 µg/mL (≈ 6.53 µM) | 4 µg/mL (≈ 13.1 µM) | 2 µg/mL (≈ 6.53 µM) | 2 µg/mL (≈ 6.53 µM) | – | – | 4 µg/mL (≈ 13.1 µM) | 8 µg/mL (≈ 26.1 µM) | 4 µg/mL (≈ 13.1 µM) | 8 µg/mL (≈ 26.1 µM) | 4 µg/mL (≈ 13.1 µM) | 8 µg/mL (≈ 26.1 µM) | – | – | – | –
5 | CCC(C)n1ncn(-c2ccc(N3CCN(c4ccc(OCC5COC(Cn6cncn6)(c6ccc(Cl)cc6Cl)O5)cc4)CC3)cc2)c1=O (stereo not drawn) [ITRACONAZOLE] | 0.063 µg/mL (≈ 0.0893 µM) | 0.25 µg/mL (≈ 0.354 µM) | 0.031 µg/mL (≈ 0.0439 µM) | 0.25 µg/mL (≈ 0.354 µM) | 0.031 µg/mL (≈ 0.0439 µM) | 0.125 µg/mL (≈ 0.177 µM) | 0.031 µg/mL (≈ 0.0439 µM) | 0.063 µg/mL (≈ 0.0893 µM) | 0.063 µg/mL (≈ 0.0893 µM) | 0.25 µg/mL (≈ 0.354 µM) | 0.063 µg/mL (≈ 0.0893 µM) | 0.25 µg/mL (≈ 0.354 µM) | 0.063 µg/mL (≈ 0.0893 µM) | 0.25 µg/mL (≈ 0.354 µM) | – | – | – | –
6 | C[C@@H](c1nc(-c2ccc(C#N)cc2)cs1)[C@](O)(Cn1cncn1)c1cc(F)ccc1F [ISAVUCONAZOLE] | 0.004 µg/mL (≈ 0.00914 µM) | 0.016 µg/mL (≈ 0.0366 µM) | 0.004 µg/mL (≈ 0.00914 µM) | 0.016 µg/mL (≈ 0.0366 µM) | 0.008 µg/mL (≈ 0.0183 µM) | 0.016 µg/mL (≈ 0.0366 µM) | 0.008 µg/mL (≈ 0.0183 µM) | 0.031 µg/mL (≈ 0.0709 µM) | 0.004 µg/mL (≈ 0.00914 µM) | 0.016 µg/mL (≈ 0.0366 µM) | 0.004 µg/mL (≈ 0.00914 µM) | 0.016 µg/mL (≈ 0.0366 µM) | 0.004 µg/mL (≈ 0.00914 µM) | 0.016 µg/mL (≈ 0.0366 µM) | – | – | – | –
7 | CC[C@@H]([C@H](C)O)n1ncn(-c2ccc(N3CCN(c4ccc(OC[C@@H]5CO[C@@](Cn6cncn6)(c6ccc(F)cc6F)C5)cc4)CC3)cc2)c1=O [POSACONAZOLE] | 0.31 µg/mL (≈ 0.442 µM) | 0.63 µg/mL (≈ 0.899 µM) | 0.004 µg/mL (≈ 0.00571 µM) | 0.016 µg/mL (≈ 0.0228 µM) | 0.031 µg/mL (≈ 0.0442 µM) | 0.125 µg/mL (≈ 0.178 µM) | 0.063 µg/mL (≈ 0.0899 µM) | 0.125 µg/mL (≈ 0.178 µM) | 0.31 µg/mL (≈ 0.442 µM) | 0.63 µg/mL (≈ 0.899 µM) | 0.31 µg/mL (≈ 0.442 µM) | 0.63 µg/mL (≈ 0.899 µM) | 0.31 µg/mL (≈ 0.442 µM) | 0.63 µg/mL (≈ 0.899 µM) | 0.016 µg/mL (≈ 0.0228 µM) | 0.016 µg/mL (≈ 0.0228 µM) | 0.016 µg/mL (≈ 0.0228 µM) | 0.016 µg/mL (≈ 0.0228 µM)

From ChEMBL document CHEMBL1255286, “In Vitro activity of the new azole isavuconazole (BAL4815) compared with six other antifungal agents against 162 Cryptococcus neoformans isolates from Cuba” (2008)
